Laboratory results: PubChem BioAssay (NCI)
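The compound was tested at five concentrations on cells cultured in 96-well plates, with a 48-hour exposure period. The concentration for full growth arrest is given as TGI.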

What was measured:
Assay in all cases: inhibition of tumour cell growth, NCI panel, 48 h
786-0 renal = tested on: 786-0 renal
A498 renal = tested on: A498 renal
A549 NSCLC = tested on: A549 NSCLC
CAKI-1 renal = tested on: CAKI-1 renal
HCC-2998 colon = tested on: HCC-2998 colon
HCT-15 colon = tested on: HCT-15 colon
M14 melanoma = tested on: M14 melanoma
MALME-3M melanoma = tested on: MALME-3M melanoma
MCF7 breast = tested on: MCF7 breast
MDA-MB-435 = tested on: MDA-MB-435
NCI-H23 lung = tested on: NCI-H23 lung
NCI-H522 lung = tested on: NCI-H522 lung
OVCAR-8 ovarian = tested on: OVCAR-8 ovarian
SF-295 CNS = tested on: SF-295 CNS
SK-OV-3 ovarian = tested on: SK-OV-3 ovarian
T-47D breast = tested on: T-47D breast
K-562 leukemia = tested on: K-562 leukemia
SNB-19 CNS = tested on: SNB-19 CNS
DU-145 prostate = tested on: DU-145 prostate

| SMILES | TGI (786-0 renal) [µM] | TGI (A498 renal) [µM] | TGI (A549 NSCLC) [µM] | TGI (CAKI-1 renal) [µM] | TGI (HCC-2998 colon) [µM] | TGI (HCT-15 colon) [µM] | TGI (M14 melanoma) [µM] | TGI (MALME-3M melanoma) [µM] | TGI (MCF7 breast) [µM] | TGI (MDA-MB-435) [µM] | TGI (NCI-H23 lung) [µM] | TGI (NCI-H522 lung) [µM] | TGI (OVCAR-8 ovarian) [µM] | TGI (SF-295 CNS) [µM] | TGI (SK-OV-3 ovarian) [µM] | TGI (T-47D breast) [µM] | TGI (K-562 leukemia) [µM] | TGI (SNB-19 CNS) [µM] | TGI (DU-145 prostate) [µM] |
| --- | --- | --- | --- | --- | --- | --- | --- | --- | --- | --- | --- | --- | --- | --- | --- | --- | --- | --- | --- |
| CCCCC1=NNC(=O)C1 | > 100 | > 100 | > 100 | > 100 | > 100 | > 100 | > 100 | > 100 | > 100 | > 100 | > 100 | > 100 | > 100 | > 100 | > 100 | > 100 | – | – | – |
| O=c1[nH]c(=O)n(C2OC(CO)C(O)C2O)cc1NN=NCc1ccccc1 (centres undefined) | > 100 | > 100 | > 100 | > 100 | > 100 | > 100 | > 100 | > 100 | – | – | > 100 | > 100 | > 100 | > 100 | > 100 | – | > 100 | > 100 | – |
| O=c1[nH]c2c(nc1NC13CC4CC(CC(C4)C1)C3)c(=O)oc1ccccc12 | > 100 | – | > 100 | 46 | > 100 | > 100 | > 100 | > 100 | – | – | > 100 | > 100 | > 100 | – | > 100 | – | > 100 | > 100 | – |
| CCOC(=O)C1(C#N)C(c2ccccc2)CC(O)(c2ccc(OC)cc2)C(C(=O)c2ccc(OC)cc2)C1c1ccccc1 (centres undefined) | > 100 | – | > 100 | > 100 | > 100 | > 100 | > 100 | > 100 | – | – | > 100 | > 100 | > 100 | > 100 | > 100 | – | > 100 | > 100 | – |
| CC(C)C(=O)[C@@]1(C)SC[C@H]2CCN=C21 | > 100 | > 100 | > 100 | > 100 | > 100 | > 100 | > 100 | > 100 | > 100 | > 100 | > 100 | > 100 | > 100 | > 100 | > 100 | – | > 100 | > 100 | > 100 |
| CC(C)(C)[Si](C)(C)OCC1OC(n2ccc(N)nc2=O)C(O[Si](C)(C)C(C)(C)C)C1O[Si](C)(C)C(C)(C)C (centres undefined) | 3.01 | – | 11.6 | – | – | 5.25 | 3.24 | 4.11 | 5.33 | – | – | 3.36 | 5.68 | 3.75 | 6.36 | 11.6 | – | 11.4 | 23.7 |
| CN(CC(=O)O)c1ncc2c(n1)-c1ccccc1SC2 | > 100 | > 100 | > 100 | > 100 | – | > 100 | > 100 | > 100 | > 100 | > 100 | > 100 | > 100 | > 100 | > 100 | – | – | – | > 100 | > 100 |
| CCN(CC)CC1CCCCCCCCCCC1=O (centres undefined) | > 100 | > 100 | > 100 | – | > 100 | > 100 | > 100 | > 100 | – | – | > 100 | > 100 | > 100 | > 100 | – | – | > 100 | > 100 | – |
| Cc1cc(N)c(C)c2c1[nH]c1ccc(O)cc12 | > 100 | – | > 100 | > 100 | > 100 | > 100 | > 100 | > 100 | – | – | > 100 | 41.1 | > 100 | > 100 | – | – | > 100 | > 100 | – |
| COc1ccc(N2C(=O)C(=O)N(c3ccccc3[N+](=O)[O-])C2=S)cc1 | > 100 | 77.5 | > 100 | > 100 | > 100 | 40.5 | – | > 100 | – | 88.2 | 53.5 | 24.4 | 44.9 | > 100 | 86.1 | 74.4 | > 100 | > 100 | > 100 |
| CNc1ccc(C(=O)CC(O)CCC(C)C2OC(=O)CC(O)CC(=O)CC(O)CC(O)CC(O)CC(O)CC3(O)CC(O)C(C(=O)NCCN(C)C)C(CC(OC4OC(C)C(O)C(NC(=O)CN5CCN(C)CC5)C4O)/C=C/C=C/C=C/C=C\C=C/C=C/C=C/C2C)O3)cc1 (centres undefined) | > 100 | 7.8 | > 100 | > 100 | – | > 100 | > 100 | 8.91 | – | > 100 | > 100 | – | > 100 | > 100 | > 100 | > 100 | > 100 | – | > 100 |
| FC(F)(F)c1ccc(N=C/C=C(/Nc2ccc(C(F)(F)F)cc2)c2ccc(Cl)cc2)cc1 | 37.9 | – | 35.5 | 19.6 | – | 25 | 30.5 | 40.4 | 48 | 23 | 31.3 | 31.3 | 39 | 36.1 | 39.1 | 39.9 | > 100 | 25 | 31.8 |
| O=Cc1cn(CCCCCCCCCCCCn2cc(C=O)c3ccccc32)c2ccccc12 | > 100 | > 100 | > 100 | > 100 | > 100 | > 100 | > 100 | > 100 | > 100 | > 100 | > 100 | > 100 | > 100 | > 100 | > 100 | – | > 100 | > 100 | > 100 |
| COc1cc(OC)c(-c2ccc(OCc3ccccc3)c3c(OC)cc(C)cc23)c2c1C(C)=N[C@H](C)C2 | 3.8 | 3.93 | 4.22 | > 12.5 | – | 4 | 3.79 | 3.57 | – | 4.12 | 4.23 | 3.6 | 3.68 | 3.78 | 4.03 | – | 3.43 | 4.54 | 4.16 |
| CCc1cc2c(oc3cc4ccccc4cc32)c(=O)[nH]1 | > 10 | – | > 10 | – | > 10 | > 10 | > 10 | > 10 | – | – | – | > 10 | > 10 | > 10 | – | – | – | > 10 | > 10 |
